Each structure is given as a SMILES string. pIC50: −log10 of the molar value.

The target in the experiment is T1, Zcchc11 enzyme (Homo sapiens, UniProt Q5TAX3).
T1 construct: made in house; host or cells: HEK293 cells (Zcchc11); E. coli Rosetta II (LIN28A)
T1 sequence (Q5TAX3 212-1420): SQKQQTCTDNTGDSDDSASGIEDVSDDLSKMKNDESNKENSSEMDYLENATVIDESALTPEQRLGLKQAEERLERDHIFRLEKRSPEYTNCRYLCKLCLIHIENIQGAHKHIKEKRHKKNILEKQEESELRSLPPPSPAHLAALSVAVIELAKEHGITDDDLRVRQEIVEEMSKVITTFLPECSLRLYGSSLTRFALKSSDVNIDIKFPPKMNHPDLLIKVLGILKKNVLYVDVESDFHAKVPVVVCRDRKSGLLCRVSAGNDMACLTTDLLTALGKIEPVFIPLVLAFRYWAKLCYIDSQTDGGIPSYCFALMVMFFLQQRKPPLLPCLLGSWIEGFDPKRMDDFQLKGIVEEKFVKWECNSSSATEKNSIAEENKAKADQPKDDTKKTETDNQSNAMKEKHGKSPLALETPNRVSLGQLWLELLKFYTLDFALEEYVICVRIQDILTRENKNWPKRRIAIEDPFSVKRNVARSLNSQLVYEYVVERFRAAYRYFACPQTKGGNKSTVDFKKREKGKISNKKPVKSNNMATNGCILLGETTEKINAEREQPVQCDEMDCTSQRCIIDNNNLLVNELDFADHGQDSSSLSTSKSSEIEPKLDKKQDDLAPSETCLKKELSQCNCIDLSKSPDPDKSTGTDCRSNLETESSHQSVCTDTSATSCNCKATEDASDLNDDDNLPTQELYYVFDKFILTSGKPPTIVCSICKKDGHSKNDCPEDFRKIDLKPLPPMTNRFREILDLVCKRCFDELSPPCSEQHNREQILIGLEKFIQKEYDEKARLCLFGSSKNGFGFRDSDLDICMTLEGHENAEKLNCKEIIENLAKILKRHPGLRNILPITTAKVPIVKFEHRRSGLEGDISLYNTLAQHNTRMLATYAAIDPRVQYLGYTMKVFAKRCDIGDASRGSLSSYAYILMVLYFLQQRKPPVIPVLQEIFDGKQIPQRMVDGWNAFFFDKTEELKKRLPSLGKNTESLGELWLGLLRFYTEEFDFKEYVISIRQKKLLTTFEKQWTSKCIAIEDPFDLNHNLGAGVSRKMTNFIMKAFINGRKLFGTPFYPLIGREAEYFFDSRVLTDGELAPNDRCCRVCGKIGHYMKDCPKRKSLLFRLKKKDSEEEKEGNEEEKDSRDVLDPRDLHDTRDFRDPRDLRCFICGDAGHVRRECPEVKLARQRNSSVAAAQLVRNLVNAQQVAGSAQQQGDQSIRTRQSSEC
The experiment in a line: TUTase assay (Zcchc11 assay, Lin28a-dependent polyuridylation of pre-let-7). The conditions noted are these: LIN28A 10 nM, Zcchc11 0.2 nM, 5′-fluorescein pre-let-7 miRNA 2 nM, UTP 5 uM, room temperature, 30 minutes pre-incubation; read-out: Potency Lin28a-dep Z11 IC50. It is filed as biochemical. A digest of the protocol: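 Potency is measured as inhibition of LIN28A-driven U-tail addition to 2 nM pre-let-7 by 0.2 nM HEK293-derived Zcchc11 fragment with 5 uM UTP at room temperature. Tail growth appears as fluorescein quenching by an annealing rhodamine-A20 probe.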
On to `NCCOc1cccnc1OC[C@H]1CCCN1c1cc2c(cc1Cl)c(=O)c(C(=O)O)cn2-c1ccc(Br)nc1` [Example 50, (R)-7-(2-(((3-(2-aminoethoxy)pyridin-2-yl)oxy)methyl)pyrrolidin-1-yl)-1-(6-bromopyridin-3-yl)-6-chloro-4-oxo-1,4-dihydroquinoline-3-carboxylic acid], for which the pIC50 was not below 6.00. Take `CN(C)C1CN(c2ccc(-n3cc(C(=O)O)c(=O)c4cc(C#N)c(N5CCC[C@@]5(C)COc5ncccc5F)cc43)cn2)C1` [Example 51, (S)-6-cyano-1-(6-(3-(dimethylamino)azetidin-1-yl)pyridin-3-yl)-7-(2-(((3-fluoropyridin-2-yl)oxy)methyl)-2-methylpyrrolidin-1-yl)-4-oxo-1,4-dihydroquinoline-3-carboxylic acid]: the pIC50 is not below 6.00. `Cc1cc2c(=O)c(C(=O)O)cn(-c3ccc(N4CC(N(C)C)C4)nc3)c2cc1N1C(=O)CC1COc1ccccn1` (stereo not drawn) [Example 52, 1-(6-(3-(dimethylamino)azetidin-1-yl)pyridin-3-yl)-6-methyl-4-oxo-7-(2-oxo-4-((pyridin-2-yloxy)methyl)azetidin-1-yl)-1,4-dihydroquinoline-3-carboxylic acid]: the pIC50 was 4.30 to 5.00.

Regarding `CN(C)c1ccc(-n2cc(C(=O)O)c(=O)c3cc(Cl)c(N4CCC[C@@H]4COc4ncccc4OCCN)cc32)cn1` [Example 53, 7-[(2R)-2-([[3-(2-Aminoethoxy)pyridin-2-yl]oxy]methyl)pyrrolidin-1-yl]-6-chloro-1-[6-(dimethylamino)pyridin-3-yl]-4-oxoquinoline-3-carboxylic acid], the pIC50 was not below 6.00. Turning to `CN(C)C1CN(c2ccc(-n3cc(C(=O)O)c(=O)c4cc(C#N)c(N5C(=O)CC[C@@H]5COc5ncccc5Cl)cc43)cn2)C1` [Example 54, (R)-7-(2-(((3-chloropyridin-2-yl)oxy)methyl)-5-oxopyrrolidin-1-yl)-6-cyano-1-(6-(3-(dimethylamino)azetidin-1-yl)pyridin-3-yl)-4-oxo-1,4-dihydroquinoline-3-carboxylic acid], the pIC50 was 4.30 to 5.00. For `O=C(O)c1cn2c3cc(c(Cl)cc3c1=O)N1CCC[C@@H]1COc1nc(ccc1Cl)OCCCNc1ccc-2cn1` [Example 55, (R)-26,63-dichloro-24-oxo-21,24-dihydro-5,7-dioxa-11-aza-2(1,7)-quinolina-1(5,2),6(2,6)-dipyridina-3(1,2)-pyrrolidinacycloundecaphane-23-carboxylic acid] the value was 4.30 to 5.00. For `CN(C)C1CN(c2ccc(-n3cc(C(=O)O)c(=O)c4cc(Cl)c(N5CCC[C@]5(C)COc5ncccc5Cl)nc43)cn2)C1` [Example 56, 6-chloro-7-[(2R)-2-[[(3-chloropyridin-2-yl)oxy]methyl]-2-methylpyrrolidin-1-yl]-1-[6-[3-(dimethylamino)azetidin-1-yl]pyridin-3-yl]-4-oxo-1,8-naphthyridine-3-carboxylic acid], the pIC50 is not below 6.00. Next, `CN(C)C1CN(c2ccc(-n3cc(C(=O)O)c(=O)c4cc(Cl)c(N5CC6(CCC6)CC5COc5ncccc5Cl)cc43)cn2)C1` (stereo not drawn) [Example 57, 6-Chloro-7-(7-(((3-chloropyridin-2-yl)oxy)methyl)-6-azaspiro[3.4]octan-6-yl)-1-(6-(3-(dimethylamino)azetidin-1-yl)pyridin-3-yl)-4-oxo-1,4-dihydroquinoline-3-carboxylic acid]: not below 6.00; `CN(C)C1CN(c2ccc(-n3cc(C(=O)O)c(=O)c4cc(Cl)c(N5CC(C)(C)C[C@@H]5COc5ncccc5Cl)cc43)cn2)C1` [Example 58, 6-chloro-7-[(2R)-2-[[(3-chloropyridin-2-yl)oxy]methyl]-4,4-dimethylpyrrolidin-1-yl]-1-[6-[3-(dimethylamino)azetidin-1-yl]pyridin-3-yl]-4-oxoquinoline-3-carboxylic acid]: not below 6.00; `CN(C)C1CN(c2ccc(-n3cc(C(=O)O)c(=O)c4cc(Cl)c(N5CCC(C)(C)C5COc5ncccc5Cl)cc43)cn2)C1` (stereo not drawn) [Example 59, 6-chloro-7-(2-{[(3-chloropyridin-2-yl)oxy]methyl}-3,3-dimethylpyrrolidin-1-yl)-1-{6-[3-(dimethylamino)azetidin-1-yl]pyridin-3-yl}-4-oxoquinoline-3-carboxylic acid]: not below 6.00. Consider `CN(C)C1CN(c2ccc(-n3cc(C(=O)O)c(=O)c4cc(Cl)c(N5CC(F)(F)C[C@@H]5COc5ncccc5Cl)nc43)cn2)C1` [Example 60, 6-chloro-7-[(2R)-2-[[(3-chloropyridin-2-yl)oxy]methyl]-4,4-difluoropyrrolidin-1-yl]-1-[6-[3-(dimethylamino)azetidin-1-yl]pyridin-3-yl]-4-oxo-1,8-naphthyridine-3-carboxylic acid], for which the pIC50 is not below 6.00.

Turning to `CN(C)C1CN(c2ccc(-n3cc(C(=O)O)c(=O)c4cc(F)c(N5C[C@H](c6cccnc6)C[C@@H]5COc5ncccc5Cl)cc43)cn2)C1` [Example 61, 7-[(2R)-2-[[(3-Chloropyridin-2-yl)oxy]methyl]-4-(pyridin-3-yl)pyrrolidin-1-yl]-1-[6-[3-(dimethylamino)azetidin-1-yl]pyridin-3-yl]-6-fluoro-4-oxoquinoline-3-carboxylic acid], the pIC50 was not below 6.00. `CN(C)C1CN(c2ccc(-n3cc(C(=O)O)c(=O)c4cc(F)c(N5C[C@@H](c6cccnc6)C[C@@H]5COc5ncccc5Cl)cc43)cn2)C1` [Example 62, 7-[(2R,4R)-2-[[(3-chloropyridin-2-yl)oxy]methyl]-4-(pyridin-3-yl)pyrrolidin-1-yl]-1-[6-[3-(dimethylamino)azetidin-1-yl]pyridin-3-yl]-6-fluoro-4-oxoquinoline-3-carboxylic acid]: the pIC50 was not below 6.00.

On to `CN(C)C1CN(c2ccc(-n3cc(C(=O)O)c(=O)c4cc(Cl)c(N5CC(C6CCC6)C[C@@H]5COc5ncccc5Cl)cc43)cn2)C1` (stereo partly drawn) [Example 63, 6-chloro-7-((2R)-2-(((3-chloropyridin-2-yl)oxy)methyl)-4-cyclobutylpyrrolidin-1-yl)-1-(6-(3-(dimethylamino)azetidin-1-yl)pyridin-3-yl)-4-oxo-1,4-dihydroquinoline-3-carboxylic acid], for which the pIC50 is not below 6.00. For `COc1ccc(Cl)c(OCC2C3CC(C3)N2c2cc3c(cc2Cl)c(=O)c(C(=O)O)cn3-c2ccc(N3CC(N(C)C)C3)nc2)n1` (stereo not drawn) [Example 64, 6-chloro-7-(3-(((3-chloro-6-methoxypyridin-2-yl)oxy)methyl)-2-azabicyclo[2.1.1]hexan-2-yl)-1-(6-(3-(dimethylamino)azetidin-1-yl)pyridin-3-yl)-4-oxo-1,4-dihydroquinoline-3-carboxylic acid] the value was not below 6.00; for `CC1CCN(c2cc3c(cc2Cl)c(=O)c(C(=O)O)cn3-c2ccnc(N)c2)[C@H]1COc1nc(N(C)C)ccc1Cl` (stereo partly drawn) [Example 65, 1-(2-aminopyridin-4-yl)-6-chloro-7-[(2R)-2-({[3-chloro-6-(dimethylamino)pyridin-2-yl]oxy}methyl)-3-methylpyrrolidin-1-yl]-4-oxoquinoline-3-carboxylic acid], not below 6.00. Turning to `COc1ccc(Cl)c(OC[C@H]2CC3CC3N2c2cc3c(cc2F)c(=O)c(C(=O)O)cn3-c2ccnc(N)c2)n1` (stereo partly drawn) [Example 66, 1-(2-Aminopyridin-4-yl)-7-((3R)-3-(((3-chloro-6-methoxypyridin-2-yl)oxy)methyl)-2-azabicyclo[3.1.0]hexan-2-yl)-6-fluoro-4-oxo-1,4-dihydroquinoline-3-carboxylic acid], the pIC50 was not below 6.00.

Turning to `COc1ccc(Cl)c(OCC2N(c3cc4c(cc3Cl)c(=O)c(C(=O)O)cn4-c3cc(N)cnn3)CCC2(C)C)n1` (stereo not drawn) [Example 67, 1-(5-Aminopyridazin-3-yl)-6-chloro-7-(2-(((3-chloro-6-methoxypyridin-2-yl)oxy)methyl)-3,3-dimethylpyrrolidin-1-yl)-4-oxo-1,4-dihydroquinoline-3-carboxylic acid], the pIC50 is not below 6.00.

For the origin of these results see patent US12662491B2 (Redona Therapeutics, Inc., priority 2020, dated 2026).
